Source: PubChem BioAssay (NCI)
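GI50 marks 50% less growth. Definition used: TGI = concentration required for complete inhibition of growth.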

Columns and labels:
Assay in all cases: NCI anticancer screen, dose series, 384-well format
[1] = tested on: 786-0 renal
[2] = tested on: ACHN renal
[3] = tested on: BT-549 breast
[4] = tested on: CAKI-1 renal
[5] = tested on: CCRF-CEM leukemia
[6] = tested on: DU-145 prostate
[7] = tested on: EKVX NSCLC
[8] = tested on: HCT-116 colon
[9] = tested on: HCT-15 colon
[10] = tested on: HL-60(TB) leukemia
[11] = tested on: HOP-62 NSCLC
[12] = tested on: HOP-92 NSCLC
[13] = tested on: HS 578T breast
[14] = tested on: HT29 colon
[15] = tested on: IGROV1 ovarian
[16] = tested on: K-562 leukemia
[17] = tested on: KM12 colon
[18] = tested on: M14 melanoma
[19] = tested on: MALME-3M melanoma
[20] = tested on: MCF7 breast
[21] = tested on: MDA-MB-231 breast
[22] = tested on: MDA-MB-435 melanoma
[23] = tested on: MDA-MB-468 breast
[24] = tested on: MOLT-4 leukemia
[25] = tested on: NCI-H226 lung
[26] = tested on: NCI-H522 lung
[27] = tested on: NCI/ADR-RES ovarian
[28] = tested on: OVCAR-3 ovarian
[29] = tested on: OVCAR-4 ovarian
[30] = tested on: OVCAR-5 ovarian
[31] = tested on: OVCAR-8 ovarian
[32] = tested on: PC-3 prostate
[33] = tested on: RPMI-8226 leukemia
[34] = tested on: RXF 393 renal
[35] = tested on: SF-268 CNS
[36] = tested on: SF-539 CNS
[37] = tested on: SK-MEL-2 melanoma
[38] = tested on: SK-MEL-28 melanoma
[39] = tested on: SN12C renal
[40] = tested on: SNB-19 CNS
[41] = tested on: SNB-75 CNS
[42] = tested on: SW-620 colon
[43] = tested on: U251 glioblastoma
[44] = tested on: UACC-257 melanoma
[45] = tested on: UACC-62 melanoma
[46] = tested on: UO-31 renal
[47] = tested on: A498 renal
[48] = tested on: A549 NSCLC
[49] = tested on: COLO 205 colon
[50] = tested on: HCC-2998 colon
[51] = tested on: LOX IMVI melanoma
[52] = tested on: NCI-H23 lung
[53] = tested on: NCI-H322M lung
[54] = tested on: NCI-H460 NSCLC
[55] = tested on: SF-295 CNS
[56] = tested on: SK-MEL-5 melanoma
[57] = tested on: SK-OV-3 ovarian
[58] = tested on: SR leukemia
[59] = tested on: T-47D breast
[60] = tested on: TK-10 renal

CC1=C(/C=C/C(C)=C/C=C/C(C)=C/C(=O)O)C(C)(C)CCC1
GI50 [1]: 29.7 µM
TGI [1]: 75.9 µM
GI50 [2]: 52.2 µM
TGI [2]: > 100 µM
GI50 [3]: 20.3 µM
TGI [3]: 36.5 µM
GI50 [4]: 38.6 µM
TGI [4]: > 100 µM
GI50 [5]: 20.1 µM
TGI [5]: 34.5 µM
GI50 [6]: 45.7 µM
TGI [6]: > 100 µM
GI50 [7]: > 100 µM
TGI [7]: > 100 µM
GI50 [8]: 20.6 µM
TGI [8]: 39 µM
GI50 [9]: 22.7 µM
TGI [9]: 52.6 µM
GI50 [10]: 0.0259 µM
TGI [10]: 16.9 µM
GI50 [11]: > 100 µM
TGI [11]: > 100 µM
GI50 [12]: 38.9 µM
TGI [12]: > 100 µM
GI50 [13]: 16.4 µM
TGI [13]: 40 µM
GI50 [14]: 21.6 µM
TGI [14]: 46 µM
GI50 [15]: > 100 µM
TGI [15]: > 100 µM
GI50 [16]: 21.5 µM
TGI [16]: 41.3 µM
GI50 [17]: 38 µM
TGI [17]: > 100 µM
GI50 [18]: 19.4 µM
TGI [18]: 38 µM
GI50 [19]: 0.95 µM
GI50 [20]: 18 µM
TGI [20]: > 100 µM
GI50 [21]: 25.4 µM
TGI [21]: 72.2 µM
GI50 [22]: 55.6 µM
TGI [22]: > 100 µM
GI50 [23]: 25.4 µM
TGI [23]: 48.4 µM
GI50 [24]: 14.6 µM
TGI [24]: 27.9 µM
GI50 [25]: 33.2 µM
TGI [25]: > 100 µM
GI50 [26]: 24.1 µM
TGI [26]: 51.5 µM
GI50 [27]: > 100 µM
TGI [27]: > 100 µM
GI50 [28]: 19.6 µM
TGI [28]: 34.9 µM
GI50 [29]: 46 µM
TGI [29]: > 100 µM
GI50 [30]: 37.2 µM
TGI [30]: > 100 µM
GI50 [31]: 24.1 µM
TGI [31]: 58.3 µM
GI50 [32]: 19.8 µM
TGI [32]: 39.7 µM
GI50 [33]: 0.293 µM
TGI [33]: 11.3 µM
GI50 [34]: 24.3 µM
TGI [34]: 57.5 µM
GI50 [35]: 22.9 µM
TGI [35]: 49.1 µM
GI50 [36]: 12 µM
TGI [36]: 24.9 µM
GI50 [37]: 27.7 µM
TGI [37]: 49.7 µM
GI50 [38]: 47.1 µM
TGI [38]: > 100 µM
GI50 [39]: 25.9 µM
TGI [39]: 89.1 µM
GI50 [40]: 30.1 µM
TGI [40]: > 100 µM
GI50 [41]: 31.5 µM
TGI [41]: 79.2 µM
GI50 [42]: 47.3 µM
TGI [42]: > 100 µM
GI50 [43]: > 100 µM
TGI [43]: > 100 µM
GI50 [44]: 33.4 µM
TGI [44]: > 100 µM
GI50 [45]: 19.2 µM
TGI [45]: 40.2 µM
GI50 [46]: 86 µM
TGI [46]: > 100 µM

Cc1ccc(NS(=O)(=O)c2cccc(C#N)c2)c2[nH]cc(C#N)c12
GI50 [1]: 11.7 µM
TGI [1]: > 100 µM
GI50 [47]: 19.7 µM
TGI [47]: > 100 µM
GI50 [48]: 15.1 µM
TGI [48]: > 100 µM
GI50 [2]: 10.4 µM
TGI [2]: > 100 µM
GI50 [3]: 24.9 µM
TGI [3]: 57.6 µM
GI50 [4]: 18 µM
TGI [4]: > 100 µM
GI50 [5]: 15.1 µM
TGI [5]: 43.3 µM
GI50 [49]: 10.5 µM
TGI [49]: > 100 µM
GI50 [6]: 4.29 µM
TGI [6]: > 100 µM
GI50 [7]: 28.7 µM
TGI [7]: 83.9 µM
GI50 [50]: 24 µM
TGI [50]: > 100 µM
GI50 [8]: 0.246 µM
TGI [8]: > 100 µM
GI50 [9]: 10.3 µM
TGI [9]: > 100 µM
GI50 [10]: 12 µM
TGI [10]: 26 µM
GI50 [11]: 12.2 µM
TGI [11]: > 100 µM
GI50 [12]: 19.9 µM
TGI [12]: 54.6 µM
GI50 [13]: 16.2 µM
TGI [13]: 65.6 µM
GI50 [14]: 47.2 µM
TGI [14]: > 100 µM
GI50 [15]: 0.247 µM
TGI [15]: > 100 µM
GI50 [16]: 0.525 µM
TGI [16]: > 100 µM
GI50 [17]: 27.1 µM
TGI [17]: > 100 µM
GI50 [51]: 32.1 µM
TGI [51]: > 100 µM
GI50 [18]: 26.5 µM
TGI [18]: > 100 µM
GI50 [19]: 61.7 µM
TGI [19]: > 100 µM
GI50 [20]: 11 µM
TGI [20]: > 100 µM
GI50 [21]: 14.7 µM
TGI [21]: > 100 µM
GI50 [22]: 10.6 µM
TGI [22]: 44.5 µM
GI50 [23]: 0.165 µM
TGI [23]: 0.629 µM
GI50 [24]: 0.66 µM
TGI [24]: 13.6 µM
GI50 [25]: 12.4 µM
TGI [25]: 70.6 µM
GI50 [52]: 20 µM
TGI [52]: 43.9 µM
GI50 [53]: 39.4 µM
TGI [53]: > 100 µM
GI50 [54]: 17.6 µM
TGI [54]: > 100 µM
GI50 [26]: 0.292 µM
TGI [26]: 15.3 µM
GI50 [27]: 1.24 µM
TGI [27]: > 100 µM
GI50 [28]: 22.2 µM
TGI [28]: 87.6 µM
GI50 [29]: 18.2 µM
TGI [29]: > 100 µM
GI50 [30]: 31.1 µM
TGI [30]: > 100 µM
GI50 [32]: 1.44 µM
TGI [32]: > 100 µM
GI50 [33]: 14.5 µM
TGI [33]: 47.7 µM
GI50 [34]: 15.6 µM
TGI [34]: 52.7 µM
GI50 [35]: 37.4 µM
TGI [35]: > 100 µM
GI50 [55]: 7.23 µM
TGI [55]: 42.1 µM
GI50 [36]: 37.5 µM
TGI [36]: > 100 µM
GI50 [37]: 33.3 µM
TGI [37]: 60 µM
GI50 [38]: 32.9 µM
TGI [38]: 95.9 µM
GI50 [56]: 15.7 µM
TGI [56]: 38 µM
GI50 [57]: 6.53 µM
TGI [57]: > 100 µM
GI50 [39]: 27.7 µM
TGI [39]: > 100 µM
GI50 [40]: 20.2 µM
TGI [40]: > 100 µM
GI50 [41]: 29.9 µM
TGI [41]: > 100 µM
GI50 [58]: 0.155 µM
TGI [58]: 0.799 µM
GI50 [42]: 14.7 µM
TGI [42]: > 100 µM
GI50 [59]: 23.1 µM
TGI [59]: 79.2 µM
GI50 [60]: 5.02 µM
TGI [60]: > 100 µM
GI50 [43]: 16.9 µM
TGI [43]: > 100 µM
GI50 [44]: 48.6 µM
TGI [44]: > 100 µM
GI50 [45]: 0.777 µM
TGI [45]: 28 µM
GI50 [46]: 17.8 µM
TGI [46]: 53.9 µM
